Reference: US6930103B2, “Use of vasopeptidase inhibitors in the treatment of metabolic diseases, nephropathy and advanced glycation end-product associated diseases” (Aventis Pharma Deutschland GmbH, priority 2002, dated 2005)

Columns and labels:
[1] = tested on: Zucker Diabetic Fatty (ZDF) Rats (ZDF Gmi fa/fa); assay: Urinary excretion of albumin and creatinine in ZDF rats treated from 10 to 37 weeks of age; type: in vivo, rat; settings: for Urine excretion Albumin / Urine excretion Albumin/Creatinine: ZDF rats, mean
Procedure: (§1) The protein and creatinine excretion in the urine of male Zucker Diabetic Fatty (ZDF) Rats (ZDF Gmi fa/fa) and heterozygous control animals (ZDF Gmi −/+) of 10, 17, 27 and 37 weeks age was determined. In further groups, diabetic rats were chronically given either ramipril (1 mg/kg/day, in drinking water) or a compound of formula (II-B) (30 mg/kg/day, in food) over a period from 10 to 37 weeks. The animals were sacrificied after 37 weeks, and their kidneys examined histologically.

fat ZDF rats = assay: Histological examination of kidneys of ZDF rats after 6 months treatment; type: in vivo, rat; parameters: Armanni-Ebstein cells MEAN SEVERITY / Glomerulosclerosis MEAN SEVERITY / Atrophy: renal tubule MEAN SEVERITY / Casts: renal tubule MEAN SEVERITY: scale not given here
Procedure: as §1
In the attached tables a summary of the findings on the kidneys after a treatment period of 6 months is listed.

ZDF rats [2] = assay: Urinary albumin/creatinine in ZDF rats, treatment starting at an animal age of 6 months; type: in vivo, rat; settings: start at age 6 months, mean
Goto-Kakizaki (GK) rats = assay: Albumin and creatinine excretion in Goto-Kakizaki (GK) rats; type: in vivo, rat; settings: start at age 6 months, mean
Procedure: The albumin and creatinine excretion in Goto-Kakizaki (GK) rats was determined. GK rats are a model for Type II diabetes. One group was left untreated, one was treated with the ACE/NEP inhibitor of formula (II-B) and one group was treated with the ACE inhibitor ramipril. [table]

ZDF rats [3] = assay: RP-HPLC analysis of CML in kidney and heart of ZDF rats; type: in vivo, rat; settings: for mean CML conc.: RP-HPLC, ZDF Placebo = 100
Procedure: Kidney AGE values were determined by Dot blot analysis (Stracke et al., Exp. Clin. Endocrinol. Diabets 2002, 109, 330-336) and Reversed-phase high performance liquid chromatography or RP-HPLC (Drusch et al., Food Chem. 1999, 65, 547-553).
[…] Two animals of each group were analyzed. Grinding of the kidney and heart was performed in liquid nitrogen using a freezer mill (Freezer 6750, C3 Analysetechnik GmbH). Hydrolysis of the organ samples was performed with 6 M hydrochloric acid (HCl) at 110° C. for 12 hours. Sample treatment with o-phthaldialdehyde (OPA) and RP-HPLC was performed as described in Drusch et al., Food Chem. 1999, 65, 547-553.

[4] = tested on: Zucker diabetic fatty rats; assay: Blood glucose analysis in ZDF rats; type: in vivo, rat; settings: for blood glucose, mean: ZDF rats
Procedure: Blood glucose and HbA1c was measured in 10- and 17-week-old male Zucker diabetic fatty rats (Genetic Model Inc.), control rats (Genetic Model Inc.) and male ZDF rats treated for seven weeks with 30 mg/kg/d of compound (II-B), 35 mg/kg/d of compound (III-B) and 1 mg/kg/d ramipril. Fifteen animals were analyzed in each group.
Blood samples for glucose determination were obtained from ZDF rats using standard sampling tubes. Within 30 minutes of collection, samples were separated from the cells by centrifugation. Quantitative determination of blood glucose in serum was performed with an enzymatic in vitro test from Roche Diagnostics GmbH (Gluco-quant, Roche Diagnostics GmbH) using the automated clinical chemistry analyzer Boehringer Mannheim/Hitachi 912.

[5] = tested on: isolated aortic rings of rabbits; assay: Relaxation of aortic rings by acetylcholine in rabbits fed an atherogenic diet; type: in vivo, White New Zealand rabbits; settings: for Relaxation of aortic rings by acetylcholine: varied diet rabbits, mean ± SEM
Excerpt: It was shown in the atherogenic rabbit model (White New Zealand rabbits were fed with 0.25% cholesterol plus 3% coconut oil) that even a short 6 week period of an atherogenic diet leads to sustained endothelial dysfunction, even though the animals received a normal diet for 3 months thereafter. […] The endothelium-dependent relaxation of isolated aortic rings of rabbits as well as the release of nitric oxide and superoxide from endothelial cells serve as measures of endothelial dysfunction. […] (II-B) [table]

endothelial cells = assay: NO and superoxide release from endothelial cells in rabbits fed an atherogenic diet; type: in vivo, White New Zealand rabbits; settings: varied diet rabbits; mean ± SEM
Excerpt: It was shown in the atherogenic rabbit model (White New Zealand rabbits were fed with 0.25% cholesterol plus 3% coconut oil) that even a short 6 week period of an atherogenic diet leads to sustained endothelial dysfunction, even though the animals received a normal diet for 3 months thereafter.
The endothelium-dependent relaxation of isolated aortic rings of rabbits as well as the release of nitric oxide and superoxide from endothelial cells serve as measures of endothelial dysfunction.
• Groups: • Standard: 18 weeks normal diet • Atherogenic: 18 weeks atherogenic diet (3% Coconut oil+0.25% Cholesterol) • Varied diet (Var.): 6 weeks atherogenic diet+12 weeks normal diet • Varied Diet+ramipril: 6 weeks atherogenic diet+12 weeks normal diet+ramipril • Varied diet+compound (II-B): 6 weeks atherogenic diet+12 weeks normal diet+cpd. (II-B)
NO and O2^− are markers for endothelial function: increased relaxation and increased NO levels are beneficial, while increased O2^− formation inhibits the beneficial effects of NO.

[6] = kidneys, male fat ZDF rats, terminal sacrifice
[7] = kidneys, male fat ZDF rats, terminal sacrifice, examined: D1 9, D4 8
[8] = kidneys, male fat ZDF rats, terminal sacrifice, examined: D1 9, D4 8, listed as compound (II-B)

Dilatation: pelvis GRADE 2: number of animals (fat ZDF rats; rat, in vivo): 1 | Dilatation: pelvis GRADE 3: number of animals (fat ZDF rats; rat, in vivo): 5 | Dilatation: pelvis GRADE 4: number of animals (fat ZDF rats; rat, in vivo): 1 | Dilatation: pelvis MEAN SEVERITY (fat ZDF rats; rat, in vivo): 3.0
SMILES: CC(=O)S[C@H](C(=O)N[C@H]1Cc2ccccc2[C@H]2CCC[C@@H](C(=O)O)N2C1=O)C(C)C [cpd. (II-B)]
Urine excretion Albumin ([1]; week 0 of treatment): 0.27 mg/kg/h | Urine excretion Albumin/Creatinine ([1]; week 0 of treatment): 48.56 mg/mmol | Urine excretion Albumin ([1]; week 7 of treatment): 0.09 mg/kg/h | Urine excretion Albumin/Creatinine ([1]; week 7 of treatment): 14.30 mg/mmol | Urine excretion Albumin ([1]; week 17 of treatment): 0.41 mg/kg/h | Urine excretion Albumin/Creatinine ([1]; week 17 of treatment): 44.63 mg/mmol | Urine excretion Albumin ([1]; week 27 of treatment): 1.39 mg/kg/h | Urine excretion Albumin/Creatinine ([1]; week 27 of treatment): 152.71 mg/mmol | Effect relative to the ACE inhibitor ramipril ([1]; nephroprotective effect, compared with ramipril): 6-8 fold | Armanni-Ebstein cells GRADE 2: number of animals (fat ZDF rats; [6]): 5 | Armanni-Ebstein cells GRADE 3: number of animals (fat ZDF rats; [6]): 3 | Armanni-Ebstein cells MEAN SEVERITY (fat ZDF rats; [6]): 2.4 | Atrophy: renal tubule GRADE 1: number of animals (fat ZDF rats; [6]): 1 | Atrophy: renal tubule GRADE 3: number of animals (fat ZDF rats; [6]): 1 | Atrophy: renal tubule MEAN SEVERITY (fat ZDF rats; [6]): 2.0 | Casts: renal tubule GRADE 1: number of animals (fat ZDF rats; [6]): 2 | Casts: renal tubule GRADE 2: number of animals (fat ZDF rats; [6]): 1 | Casts: renal tubule MEAN SEVERITY (fat ZDF rats; [6]): 1.3 | Glomerulosclerosis GRADE 1: number of animals (fat ZDF rats; [6]): 1 | Glomerulosclerosis GRADE 3: number of animals (fat ZDF rats; [6]): 1 | Glomerulosclerosis MEAN SEVERITY (fat ZDF rats; [6]): 1.0 | Armanni-Ebstein cells: number of animals with finding (total affected) (fat ZDF rats; [7]): 8 | Atrophy: renal tubule: number of animals with finding (total affected) (fat ZDF rats; [7]): 2 | Casts: renal tubule: number of animals with finding (total affected) (fat ZDF rats; [7]): 3 | Glomerulosclerosis: number of animals with finding (total affected) (fat ZDF rats; [7]): 1 | Atrophy: renal tubule: number of animals with finding (total affected) (fat ZDF rats; [8]): low incidences | Casts: renal tubule: number of animals with finding (total affected) (fat ZDF rats; [8]): low incidences | Glomerulosclerosis: number of animals with finding (total affected) (fat ZDF rats; [8]): not present | Albumin/Creatinine (ZDF rats [2]; 6 weeks treatment): 135.08 mg/mmol | Albumin/Creatinine (ZDF rats [2]; 12 weeks treatment): 100.86 mg/mmol | Albumin/Creatinine (ZDF rats [2]; Basal): 1330.99 mg/mmol | Albumin/Creatinine (Goto-Kakizaki (GK) rats; 6 weeks treatment): 17.70 mg/mmol | Albumin/Creatinine (Goto-Kakizaki (GK) rats; 12 weeks treatment): 24.28 mg/mmol | Albumin/Creatinine (Goto-Kakizaki (GK) rats; Basal): 103.95 mg/mmol | mean CML conc. (ZDF rats [3]; hearts of 17-week-old ZDF rats): 26% | mean CML conc. (ZDF rats [3]; kidneys of 17-week-old ZDF rats): 55% | mean CML conc. (ZDF rats [3]; kidneys of 37-week-old ZDF rats): 58% | CML concentration in the heart of 17-week-old ZDF rats (ZDF rats [3]; in words): reduces | CML concentration in the kidneys of 17-week-old ZDF rats (ZDF rats [3]; in words): reduces | CML concentration in the kidneys of 37-week-old ZDF rats (ZDF rats [3]; in words): reduces | Blood glucose concentration compared to the untreated ZDF rats ([4]; 17-week-old ZDF rats, in words): significantly lower | blood glucose, mean ([4]; age 10 weeks (start of treatment)): 10.67 mM | blood glucose, mean ([4]; age 17 weeks (treated for seven weeks)): 21.09 mM | Blood glucose value compared with the ACE inhibitor ramipril ([4]; in words): lower values | Relaxation of aortic rings by acetylcholine ([5]; ACh 10^−5 mol/L after phenylephrine 10^−7 mol/L): 80.89 ± 6.82% | Relaxation of aortic rings by acetylcholine ([5]; ACh 10^−6 mol/L after phenylephrine 10^−7 mol/L): 76.4 ± 6.38% | Relaxation of aortic rings by acetylcholine ([5]; ACh 10^−7 mol/L after phenylephrine 10^−7 mol/L): 59.62 ± 6.43% | Relaxation of aortic rings by acetylcholine ([5]; ACh 10^−8 mol/L after phenylephrine 10^−7 mol/L): 19.9 ± 3.48% | Endothelial dysfunction and atherogenic changes in the blood vessels ([5]; atherogenic rabbit model, in words): both prevented and reversed | NO (endothelial cells): 329.19 ± 30.10 nM | O2^− (superoxide) (endothelial cells): 30.18 ± 6.00 nM
